According to PubChem BioAssay (NCI):
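Five concentrations, 48 hours, 96-well plates. TGI denotes the concentration required for complete inhibition of growth.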

Key:
Assay in all cases: inhibition of tumour cell growth, NCI panel, 48 h
[1] = tested on: T-47D breast
[2] = tested on: OVCAR-5 ovarian
[3] = tested on: SF-268 CNS
[4] = tested on: BT-549 breast
[5] = tested on: SW-620 colon
[6] = tested on: ACHN renal
[7] = tested on: CAKI-1 renal
[8] = tested on: HS 578T breast
[9] = tested on: UACC-257 melanoma
[10] = tested on: NCI-H226 lung
[11] = tested on: MDA-MB-231 breast
[12] = tested on: KM12 colon
[13] = tested on: MCF7 breast
[14] = tested on: IGROV1 ovarian
[15] = tested on: SF-539 CNS
[16] = tested on: U251 CNS
[17] = tested on: NCI/ADR-RES ovarian
[18] = tested on: UO-31 renal
[19] = tested on: SK-MEL-2 melanoma
[20] = tested on: HL-60(TB) leukemia
[21] = tested on: 786-0 renal
[22] = tested on: A549 NSCLC
[23] = tested on: SNB-75 CNS
[24] = tested on: NCI-H23 lung
[25] = tested on: COLO 205 colon
[26] = tested on: MOLT-4 leukemia
[27] = tested on: UACC-62 melanoma
[28] = tested on: NCI-H460 lung
[29] = tested on: HT29 colon
[30] = tested on: SNB-19 CNS
[31] = tested on: SK-MEL-5 melanoma
[32] = tested on: EKVX NSCLC
[33] = tested on: K-562 leukemia
[34] = tested on: HCT-15 colon
[35] = tested on: SR leukemia
[36] = tested on: OVCAR-8 ovarian
[37] = tested on: HOP-92 NSCLC
[38] = tested on: MALME-3M melanoma
[39] = tested on: RXF 393 renal
[40] = tested on: RPMI-8226 leukemia
[41] = tested on: SN12C renal
[42] = tested on: MDA-MB-435
[43] = tested on: NCI-H522 lung
[44] = tested on: SK-OV-3 ovarian
[45] = tested on: TK-10 renal
[46] = tested on: M14 melanoma
[47] = tested on: PC-3 prostate
[48] = tested on: DU-145 prostate
[49] = tested on: HCT-116 colon
[50] = tested on: SF-295 CNS
[51] = tested on: MDA-N
[52] = tested on: SK-MEL-28 melanoma
[53] = tested on: HOP-62 NSCLC
[54] = tested on: CCRF-CEM leukemia
[55] = tested on: OVCAR-3 ovarian
[56] = tested on: LOX IMVI melanoma
[57] = tested on: A498 renal
[58] = tested on: OVCAR-4 ovarian

Measured: TGI

CCCC(CCC(=O)O)(CCC(=O)O)[N+](=O)[O-]
> 100 µM: [1] | [2] | [3] | [4] | [5] | [6] | [7] | [8] | [9] | [10] | [11] | [12] | [13] | [14] | [15] | [16] | [17] | [18] | [19] | [20] | [21] | [22] | [23] | [24] | [25] | [26] | [27] | [28] | [29] | [30] | [31] | [32] | [33] | [34] | [35] | [36] | [37] | [38] | [39] | [40] | [41] | [42] | [43] | [44] | [45] | [46] | [47] | [48] | [49] | [50] | [51]

O=C(Nc1ccc(-c2cn3ccccc3n2)cc1)c1cc(Br)ccc1O
> 100 µM: [1] | [2] | [3] | [4] | [5] | [6] | [7] | [8] | [9] | [10] | [11] | [12] | [13] | [14] | [15] | [16] | [17] | [52] | [19] | [20] | [21] | [22] | [23] | [24] | [25] | [53] | [26] | [54] | [27] | [28] | [55] | [56] | [29] | [30] | [31] | [57] | [32] | [33] | [34] | [35] | [36] | [37] | [38] | [58] | [39] | [40] | [41] | [42] | [43] | [44] | [45] | [46] | [47] | [48] | [49] | [50] | [51]
